PubChem BioAssay (NCI)
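A five-concentration, 48-hour dose response in 96-well plates underlies each endpoint, interpolated linearly between surrounding concentrations. Here, GI50 denotes the concentration required for 50% inhibition of growth. The concentration for full growth arrest is given as TGI.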

Experiments:
Experiment in all cases: NCI anticancer screen, dose series, 48 h
[1] = test system: HL-60(TB) leukemia
[2] = test system: HOP-18 NSCLC
[3] = test system: LXFL 529 NSCLC
[4] = test system: M19-MEL melanoma
[5] = test system: NCI-H226 lung
[6] = test system: SNB-78 CNS
[7] = test system: U251 CNS
[8] = test system: HS 578T breast
[9] = test system: MDA-MB-435
[10] = test system: XF 498 CNS

Row | SMILES | TGI [1] [µM] | TGI [2] [µM] | TGI [3] [µM] | TGI [4] [µM] | TGI [5] [µM] | TGI [6] [µM] | TGI [7] [µM] | TGI [8] [µM] | TGI [9] [µM] | TGI [10] [µM] | GI50 [1] [µM] | GI50 [8] [µM] | GI50 [9] [µM] | GI50 [5] [µM] | GI50 [7] [µM]
1 | CC[P+](C)(C)CC | > 100 | > 100 | > 100 | > 100 | > 100 | > 100 | > 100 |  |  |  |  |  |  |  | 
2 | O=C1C2C3C=CC(C2C(=O)N1CN1CCOCC1)C1C2C(=O)N(CN4CCOCC4)C(=O)C2C31 (stereo not drawn) | > 59.5 | 60.2 | 36.1 | 40.5 | > 84.3 | > 100 | > 63.2 | > 100 | > 100 |  |  |  |  |  | 
3 | CCOC(=O)C(c1ccsc1)P(=O)(OCC)OCC (stereo not drawn) |  | 43.8 | 26.7 | 25.7 | 35.8 | 76.9 | 45.4 |  |  | 38.4 |  |  |  |  | 
4 | Nc1ncnc2c1ncn2C1(CO)OC(CO)C(O)C1O (stereo not drawn) | > 100 | > 100 | > 100 |  | > 100 | > 100 | > 100 |  |  | > 100 |  |  |  |  | 
5 | Nc1ccccc1SC(CC(=O)c1ccccc1)c1c(Cl)cccc1Cl (stereo not drawn) | 11.7 |  |  |  | 40.6 |  | 15.3 | 49.5 | 10.7 |  | 3.36 | 4.48 | 2.87 | 14.9 | 4.24
6 | CN1C=C(C(N)=O)Cc2ccsc21 | > 100 | > 100 | > 100 | > 100 | > 100 | > 100 | > 100 |  |  |  |  |  |  |  | 
7 | COc1cc(/C=C/C(=O)c2cccc(-n3cc(-c4ccccc4)[nH]c3=O)c2)ccc1O | 5.53 |  |  |  | 17.8 |  | 7.9 | 18.6 | 8.91 |  | 2.07 | 3.09 | 2.58 | 6.35 | 2.5
8 | O=NN(CC(=O)NNc1ccccc1)CC(=O)NNc1ccccc1 | > 100 |  |  |  | > 100 |  | > 100 | > 100 | > 100 |  | 0.534 | > 100 | > 20.1 | > 100 | > 100
9 | Oc1ccc(Br)cc1C=Nc1ccc(Oc2ccc(N=Cc3cc(Br)ccc3O)cc2)cc1 | > 19.6 | > 19.6 | > 19.6 | > 19.6 | > 19.6 |  | > 19.6 |  |  |  |  |  |  |  | 
10 | Nc1ncnc2occ(-c3ccc(NC(=O)Nc4cccc(C(F)(F)F)c4)cc3)c12 | 14.2 |  |  |  | 6.1 |  | 16.5 | 6.74 | 6.48 |  | 5.1 | 0.973 | 2.22 | 0.367 | 5.27
11 | CN(C)c1ccc(-c2nc(N)nc3c2CCCC3)cc1 | > 100 |  | > 100 | > 100 | > 100 | > 100 | > 100 |  |  | 60.5 |  |  |  |  | 
12 | N/N=C1\C(=O)N(c2ccc(Cl)c(Cl)c2)C(=O)C1C(=O)Nc1ccc(Cl)c(Cl)c1 (stereo not drawn) | > 100 | > 100 | > 100 | > 100 |  | 79.5 | > 100 |  |  |  |  |  |  |  | 
13 | O=C1C=CC(=O)N1c1ccc2ccccc2c1 | 33.5 |  |  |  | 33.3 |  | 33.8 | 53.4 | 32.2 |  | 7.74 | 14.4 | 16.9 | 16.8 | 17.8
14 | COc1cc(/C=C2\CC3C4CC=C5C[C@@H](N6CCCC6)CC[C@]5(C)C4CC[C@]3(C)[C@H]2OC(C)=O)ccc1OCCCn1ccnc1 (stereo partly drawn) | 1.31 |  |  |  | 21.9 |  | 0.164 | 16.4 | 1.68 |  | 0.393 | 5.76 | 0.912 | 10.3 | 0.0845
15 | CN(C)Cc1c[nH]c2nc[nH]c(=O)c12 | 42.4 |  |  |  | > 100 |  | > 100 | > 100 | > 100 |  |  |  |  |  | 
16 | Cc1ccc(C)c(NC(=O)C(=O)C(C2C(C)CC(=O)C2CC(=O)O)[N+](=O)[O-])c1 (stereo not drawn) | > 100 |  | > 100 | > 100 | > 100 | > 100 | > 100 |  |  | > 100 |  |  |  |  | 
17 | O=C(NCCc1nccs1)c1cnc2c(S)cccc2c1 | 70 |  |  |  | 21.4 |  | 16.7 | 80.5 | 53.5 |  | 10.7 | 6.28 | 3.85 | 5.7 | 2.53
